Literature values as cited in patent US20190214145A1, “Method and systems for creating and screening patient metabolite profile to diagnose current medical condition, diagnose current treatment state and recommend new treatment regimen” (priority 2018, published 2019).

Test system: not given
Conditions: intravenous, amount equivalent to one cannabis cigarette
In the case of `CCCCCc1cc(O)c2c(c1)OC(C)(C)[C@@H]1CCC(C)=C[C@@H]21` [Δ9THC], the Heart rate is given as “significantly increases”, the “Phosphoenolpyruvate (PEP)” value is given as “decreases” and the “Systolic or diastolic arterial pressure” value is given as “without any change”.

Test system: not given
Conditions: vaporizing temperature
In the case of `CCCCCc1cc(O)c2c(c1)OC(C)(C)[C@@H]1CCC(C)=C[C@@H]21` [Δ9THC], the BP is listed as 157 °C.
For `CCCCCc1cc2c(c(O)c1C(=O)O)C=CC(C)(CCC=C(C)C)O2` (centres unmarked) [CBCA], the BP is given as 145 °C.
For `O=c1cc(-c2ccc(O)cc2)oc2cc(O)cc(O)c12` [Apigenin], the BP is listed as 178 °C.
For `Cc1ccc(C(C)C)cc1` [P-cymene], the BP is given as 177 °C.
For `CC1=CC[C@@H](C(C)(C)O)CC1` [α-terpinol], the BP is given as 156 °C.
For `CC1=CCC(C(C)(C)O)CC1` (stereo not drawn) [α-terpineol], the BP is given as 217 °C.
For `C=CC(C)(O)CCC=C(C)C` (centres unmarked) [Linalool], the BP is given as 198 °C.
In the case of `CCCCCc1cc(O)c2c(c1)OC(C)(CCC=C(C)C)C=C2` (centres unmarked) [CBC], the BP is given as 220 °C.
In the case of `COc1cc(-c2cc(=O)c3c(O)c(C/C=C(\C)CCC=C(C)C)c(O)cc3o2)ccc1O` [Cannflavin A], the BP is given as 182 °C.
For `C=CC(=C)CCC=C(C)C` [β-myrcene], the BP is given as 167 °C.
For `C=C1CC/C=C(\C)CC[C@@H]2[C@@H]1CC2(C)C` [β-caryophyllene], the BP is listed as 199 °C.
In the case of `C=C(C)[C@H]1CC=C(C)CC1` [D-limonene], the BP is listed as 177 °C.
For `CCCCCc1cc2c(c(O)c1C(=O)O)[C@@H]1C=C(C)CC[C@H]1C(C)(C)O2` [Δ9THCA], the BP is listed as 104 °C.
For `CC1=CCC(O)(C(C)C)CC1` (centres unmarked) [Terpinol-4-ol], the BP is listed as 209 °C.
For `CC1(C)C2CCC1(C)C(O)C2` (centres unmarked) [Borneol], the BP is given as 210 °C.
In the case of `CC1=CCC2C(C1)C2(C)C` (centres unmarked) [Δ-3-carene], the BP is listed as 168 °C.
For `C=C(C)[C@@H]1CCC(C)=C[C@H]1c1c(O)cc(CCCCC)c(C(=O)O)c1O` [CBDA], the BP is given as 120 °C.
For `C=C(C)[C@@H]1CCC(C)=C[C@H]1c1c(O)cc(CCCCC)cc1O` [CBD, reference compound], the BP is listed as 180 °C.
In the case of `CC[C@H](CC[C@@H](C)[C@H]1CC[C@H]2[C@@H]3CC=C4C[C@@H](O)CC[C@]4(C)[C@H]3CC[C@]12C)C(C)C` [β-sitosterol], the BP is given as 134 °C.
For `CC(C)=C1CC[C@@H](C)CC1=O` [Pulegone], the BP is given as 224 °C.
In the case of `CC12CCC(CC1)C(C)(C)O2` [1,8-cineole], the BP is listed as 176 °C.

Test system: submandibular gland
Conditions: rats, saliva from ducts of the submandibular gland
For `Cc1c(C(=O)c2cccc3ccccc23)c2cccc3c2n1[C@H](CN1CCOCC1)CO3` [WIN55212-2T], the “Ca 2+ concentration of saliva” value is given as “increase”, the “Other electrolytes of saliva” value is given as “no changes” and the Saliva flow rate is given as “significant decrease”. For the same compound, the “Total protein content of saliva” value was “increase”.
For `CCCn1c(C)c(C(=O)c2cccc3ccccc23)c2ccccc21` [JWH015], the “Ca 2+ concentration of saliva” value is given as “increase”, the “Other electrolytes of saliva” value is given as “no changes” and the Saliva flow rate is given as “significant decrease”. The “Total protein content of saliva” value was “increase”.
For `CCCCC/C=C\C/C=C\C/C=C\C/C=C\CCCC(=O)N[C@H](C)CO` [(R)-(+)-methanandamide], the “Ca 2+ concentration of saliva” value is given as “increase”, the “Other electrolytes of saliva” value is given as “no changes” and the Saliva flow rate is given as “significant decrease”. The “Total protein content of saliva” value was “increase”.

Test system: not given
Conditions: upon inhalation, even in low concentrations
In the case of `CC1=CCC(C(C)(C)O)CC1` (stereo not drawn) [α-terpineol], the Sedation is given as “deeply sedating”.
For `CC(C)=CCCC(C)CCO` (centres unmarked) [Citronellol], the Sedation is given as “deeply sedating”.
